Tests used:
Test in all cases: relative viability (nuclei count vs DMSO), 5 days (fraction); higher = more cells survive
[1] = compound: C1/C(=C\C2=CC=CS2)/C(=O)/C(=C/C3=CC=CS3)/C1 + CS(=O)(=O)CCNCc1ccc(-c2ccc3ncnc(Nc4ccc(OCc5cccc(F)c5)c(Cl)c4)c3c2)o1 [Lapatinib] (partner 2 µM)
Method in brief: (§1)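 Medians of duplicate plates are given as relative viability. That measure is the nuclei count in treated wells divided by the count in vehicle wells. Counts were taken on 4× images of lung cancer cell lines in 1536-well plates, 5 days after pin-tool dosing the day after seeding with one drug alone or a fixed anchor-drug dose plus five library-drug doses (not always all listed) in √10 steps.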

[2] = compound: C[C@]12O[C@H](C[C@]1(O)CO)n1c3ccccc3c3c4c(c5c6ccccc6n2c5c31)CNC4=O [Lestaurtinib] + CC(=O)Nc1cccc(-n2c(=O)n(C3CC3)c(=O)c3c(Nc4ccc(I)cc4F)n(C)c(=O)c(C)c32)c1 [Trametinib] (partner 0.02 µM)
Method in brief: as §1

[3] = compound: C[C@]12O[C@H](C[C@]1(O)CO)n1c3ccccc3c3c4c(c5c6ccccc6n2c5c31)CNC4=O [Lestaurtinib] + CC(=O)c1c(C)c2cnc(Nc3ccc(N4CCNCC4)cn3)nc2n(C2CCCC2)c1=O [Palbociclib] (partner 0.5 µM)
Method in brief: as §1

[4] = compound: C[C@]12O[C@H](C[C@]1(O)CO)n1c3ccccc3c3c4c(c5c6ccccc6n2c5c31)CNC4=O [Lestaurtinib] + C[C@@H](Oc1cc(-c2cnn(C3CCNCC3)c2)cnc1N)c1c(Cl)ccc(F)c1Cl [Crizotinib] (partner 1 µM)
Method in brief: as §1

Cell Line | relative viability ([1]; first compound 0.2 µM) | relative viability ([1]; first compound 0.6325 µM) | relative viability ([1]; first compound 2 µM) | relative viability ([1]; first compound 6.325 µM) | relative viability ([1]; first compound 20 µM) | relative viability ([2]; first compound 0.005 µM) | relative viability ([2]; first compound 0.01581 µM) | relative viability ([2]; first compound 0.05 µM) | relative viability ([2]; first compound 0.1581 µM) | relative viability ([2]; first compound 0.5 µM) | relative viability ([3]; first compound 0.005 µM) | relative viability ([3]; first compound 0.01581 µM) | relative viability ([3]; first compound 0.05 µM) | relative viability ([3]; first compound 0.1581 µM) | relative viability ([3]; first compound 0.5 µM) | relative viability ([4]; first compound 0.005 µM) | relative viability ([4]; first compound 0.01581 µM) | relative viability ([4]; first compound 0.05 µM) | relative viability ([4]; first compound 0.1581 µM) | relative viability ([4]; first compound 0.5 µM)
LU99A | 0.914 | 0.958 | 1.23 | 0.785 | 0.95 | 0.55 | 0.522 | 0.439 | 0.231 | 0.145 | 0.371 | 0.392 | 0.285 | 0.271 | 0.185 | 0.606 | 0.49 | 0.275 | 0.314 | 0.162
BEN | 0.621 | 0.801 | 0.795 | 0.488 | 0.611 | 1.23 | 1.43 | 0.998 | 0.709 | 0.553 | 0.483 | 0.537 | 0.467 | 0.432 | 0.399 | 0.902 | 1.1 | 0.879 | 0.687 | 0.29
SK-LU-1 | 0.91 | 0.787 | 0.846 | 0.721 | 0.922 | 0.452 | 0.476 | 0.415 | 0.384 | 0.318 | 0.333 | 0.335 | 0.356 | 0.3 | 0.288 | 0.663 | 0.915 | 0.433 | 0.516 | 0.312
NCI-H1975 | 1.01 | 0.789 | 0.966 | 0.613 | 0.823 | 0.344 | 0.33 | 0.348 | 0.262 | 0.209 | 0.617 | 0.632 | 0.406 | 0.347 | 0.25 | 0.943 | 0.988 | 0.707 | 0.867 | 0.586
RERF-LC-KJ | 0.915 | 0.943 | 0.827 | 0.893 | 0.764 | 0.946 | 0.879 | 0.736 | 0.701 | 0.478 | 1.15 | 1.15 | 0.845 | 0.87 | 0.565 | 0.856 | 0.969 | 0.674 | 0.799 | 0.6
HCC-78 | 0.759 | 0.828 | 1.1 | 0.562 | 0.814 | 0.832 | 0.807 | 0.578 | 0.522 | 0.284 | 0.453 | 0.545 | 0.53 | 0.557 | 0.427 | 0.318 | 0.396 | 0.318 | 0.287 | 0.267
NCI-H1915 | 0.984 | 0.996 | 0.964 | 0.937 | 1.03 | 0.318 | 0.254 | 0.253 | 0.12 | 0.0799 | 0.564 | 0.719 | 0.481 | 0.323 | 0.231 | 0.914 | 1.1 | 0.816 | 0.848 | 0.357

Reference: the supplement of paper PMC10307832
